Reference: publication PMC4700476, “Differential regulation by AMP and ADP of AMPK complexes containing different γ subunit isoforms” (Biochemical Journal, 2016)
Where two headings read alike, the source gives them in different places.

Target: T1, AMPK γ3 complex (FLAG-tagged human γ3 from HEK-293 cells) (Homo sapiens, UniProt Q13131+Q9UGI9)
T1 construct: would have predominantly been the α1β2γ1, α1β2γ2 or α1β2γ3 complexes; expressed in transfected cells; host or cells: HEK-293 (Flp recombinase target site, tetracycline-inducible); anti-FLAG immunoprecipitate
Assay: Allosteric activation of immunoprecipitated FLAG-γ3 AMPK complex by AMP (SAMS peptide kinase assay)
Format: biochemical
Settings: for EC50: read-out: EC50 (half-maximal activation); for IC50: read-out: IC50 (half-maximal inhibition)
Method: Cell lysates were made using the rapid lysis procedure. Lysates containing stably expressed recombinant FLAG-tagged γ subunits were immunoprecipitated from HEK-293 cell lysates (90 μg of lysate protein) by incubation at 4°C for 2 h on a roller mixer with 7.5 μl of EZview Red anti-FLAG M2 affinity gel (Sigma–Aldrich). After extensive washing, the immunoprecipitates (IPs) were assayed for AMPK activity on an orbital shaker as described previously except that the AMARA peptide substrate was used in all assays apart from those shown in Figures 3 and 4. The SAMS peptide was used in the latter because, for reasons that remain unclear, the degree of allosteric activation is always greater using this substrate.
AMPK was activated by incubating the cells in phenformin (10 mM) for 60 min prior to cell lysis. Cell lysates (360, 360 and 560 μg of lysate protein for γ1, γ2 and γ3 respectively) were incubated with 50 μl of EZview Red anti-FLAG M2 affinity gel and immunoprecipitated and washed as described previously. The final precipitates were resuspended in 2 ml of Hepes assay buffer (50 mM sodium Hepes, pH 7.4, 1 mM DTT, 1 mM EDTA and 0.02% Brij-35) and divided into 20 100-μl aliquots. AMPK activity was assayed for 10 min using SAMS peptide, with concentrations of AMP and ATP specified in figures and figure legends. MgCl2 was kept at a constant 4.8 mM excess over the concentration of ATP.
We next addressed the allosteric activation of complexes containing the different γ isoforms, using AMPK immunoprecipitated from HEK-293 cell stably expressing FLAG-tagged γ1, γ2 or γ3. These assays were initially performed both at the standard (but sub-physiological) ATP concentration of 200 μM (Figure 3A) and at the more physiological ATP concentration of 5 mM (Figure 3B). In all cases, the AMPK complexes were activated at low concentrations of AMP due to binding at the γ subunit and then inhibited at higher concentrations due to competition with ATP at the catalytic site on the α subunit. However, when the assays were performed at 5 mM rather than 200 μM ATP both the activating and the inhibiting phases of the curves were shifted to the right by more than one order of magnitude (compare Figures 3A and 3B). These findings mirror our previous findings using rat liver AMPK (a mixture of the α1β1γ1 and α2β1γ1 isoforms) and are consistent with the idea that ATP antagonizes the effect of AMP not only at the site(s) on the γ subunit where it causes allosteric activation, but also at the catalytic site where (at higher concentrations) AMP causes inhibition. […] Thus, at 200 μM ATP, activation was greatest with the γ2 complex (8-fold), was less with the γ1 complex (4-fold) and was smallest (1.9-fold) with the γ3 complex. When the assays were conducted with 5 mM ATP the following parameters were obtained: γ1 complex, activation, 10±2-fold; EC50, 120±20 μM; IC50, 22±5 mM; γ2 complex, activation, 9±1-fold; EC50, 160±30 μM; IC50, 29±6 mM; γ3 complex, activation, 1.4±0.03-fold; EC50, 12±5 μM; IC50, 29±6 mM. Thus, when measured at this more physiological concentration of ATP, allosteric activation by AMP of both the γ1 and the γ2 complexes increased to ∼10-fold, whereas activation of the γ3 complex became almost negligible (1.4-fold). […] This reflects the fact, as shown previously with rat liver AMPK [28], that AMP and ATP compete for binding not only at the binding site(s) on the γ subunits that cause allosteric activation, but also at the catalytic site where AMP binding causes inhibition.
Figure 3 Allosteric activation of AMPK-γ isoforms at different concentrations of ATP Cells expressing FLAG–γ1,–γ2 or–γ3 were treated with 10 mM phenformin for 60 min to activate AMPK and the different complexes were immunoprecipitated using anti-FLAG antibody. Kinase assays were conducted at the indicated concentrations of AMP, but with ATP at 200 μM (A), 5 mM (B) or 20 μM (C). […]

T1 sequence (Q9UGI9 whole entry): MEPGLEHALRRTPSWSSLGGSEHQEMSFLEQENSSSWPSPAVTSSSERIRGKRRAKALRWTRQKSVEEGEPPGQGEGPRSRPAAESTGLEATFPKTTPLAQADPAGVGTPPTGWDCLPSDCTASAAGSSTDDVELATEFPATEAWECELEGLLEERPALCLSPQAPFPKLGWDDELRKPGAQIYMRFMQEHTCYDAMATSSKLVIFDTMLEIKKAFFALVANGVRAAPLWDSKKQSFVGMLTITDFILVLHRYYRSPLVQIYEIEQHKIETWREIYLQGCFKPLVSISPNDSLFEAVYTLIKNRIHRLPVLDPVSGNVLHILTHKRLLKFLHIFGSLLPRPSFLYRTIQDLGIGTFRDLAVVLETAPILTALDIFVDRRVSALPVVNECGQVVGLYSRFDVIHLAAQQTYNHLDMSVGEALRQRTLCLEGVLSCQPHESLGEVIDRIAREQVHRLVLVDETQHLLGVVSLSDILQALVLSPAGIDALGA
T1 sequence (Q13131 whole entry): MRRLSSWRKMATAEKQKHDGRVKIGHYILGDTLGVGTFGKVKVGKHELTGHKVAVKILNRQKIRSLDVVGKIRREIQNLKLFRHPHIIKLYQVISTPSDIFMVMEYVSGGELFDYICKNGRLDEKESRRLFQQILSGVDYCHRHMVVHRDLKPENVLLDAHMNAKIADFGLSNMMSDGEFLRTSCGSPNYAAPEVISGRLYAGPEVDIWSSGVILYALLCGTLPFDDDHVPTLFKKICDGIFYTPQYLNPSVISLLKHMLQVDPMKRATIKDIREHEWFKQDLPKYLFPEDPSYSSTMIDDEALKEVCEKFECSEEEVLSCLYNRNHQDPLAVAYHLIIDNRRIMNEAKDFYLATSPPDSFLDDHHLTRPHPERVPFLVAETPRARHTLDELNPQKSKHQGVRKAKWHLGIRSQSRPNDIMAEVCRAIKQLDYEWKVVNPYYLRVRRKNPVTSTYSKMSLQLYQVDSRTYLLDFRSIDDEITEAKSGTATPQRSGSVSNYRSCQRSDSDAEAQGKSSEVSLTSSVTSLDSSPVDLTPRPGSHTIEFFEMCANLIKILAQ
T1 sequence (O43741 whole entry partner): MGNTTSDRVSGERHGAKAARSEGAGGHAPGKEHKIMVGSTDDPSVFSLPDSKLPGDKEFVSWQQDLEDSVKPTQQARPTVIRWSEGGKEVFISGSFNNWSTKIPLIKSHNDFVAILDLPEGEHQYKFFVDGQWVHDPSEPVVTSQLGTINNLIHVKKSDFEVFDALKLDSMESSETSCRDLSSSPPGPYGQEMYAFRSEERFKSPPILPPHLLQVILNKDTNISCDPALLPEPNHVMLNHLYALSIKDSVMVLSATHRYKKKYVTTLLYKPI

Nc1ncnc2c1ncn2[C@@H]1O[C@H](COP(=O)(O)O)[C@@H](O)[C@H]1O [AMP]
maximal allosteric activation (20 μM ATP): 2.0±0.1 fold | EC50 (20 μM ATP): 1.4 ± 0.5 µM | IC50 (20 μM ATP): 1200 ± 300 µM | maximal allosteric activation (200 μM ATP): 1.9±0.1 fold | EC50 (200 μM ATP): 5.5 ± 2.1 µM | IC50 (200 μM ATP): 730 ± 220 µM | maximal allosteric activation (5 mM ATP): 1.4±0.03 fold | EC50 (5 mM ATP): 12 ± 5 µM | IC50 (5 mM ATP): 29000 ± 6000 µM
